Key:
Experiment in all cases: KINOMEscan competitive binding
PRKG1 = biological target: T1, PRKG1 (Homo sapiens, UniProt Q13976); conditions: n=1, read-out: Percent inhibition, PRKG1
T1 construct: purchased DiscoverX (KINOMEscan)
T1 sequence (Q13976 1-671): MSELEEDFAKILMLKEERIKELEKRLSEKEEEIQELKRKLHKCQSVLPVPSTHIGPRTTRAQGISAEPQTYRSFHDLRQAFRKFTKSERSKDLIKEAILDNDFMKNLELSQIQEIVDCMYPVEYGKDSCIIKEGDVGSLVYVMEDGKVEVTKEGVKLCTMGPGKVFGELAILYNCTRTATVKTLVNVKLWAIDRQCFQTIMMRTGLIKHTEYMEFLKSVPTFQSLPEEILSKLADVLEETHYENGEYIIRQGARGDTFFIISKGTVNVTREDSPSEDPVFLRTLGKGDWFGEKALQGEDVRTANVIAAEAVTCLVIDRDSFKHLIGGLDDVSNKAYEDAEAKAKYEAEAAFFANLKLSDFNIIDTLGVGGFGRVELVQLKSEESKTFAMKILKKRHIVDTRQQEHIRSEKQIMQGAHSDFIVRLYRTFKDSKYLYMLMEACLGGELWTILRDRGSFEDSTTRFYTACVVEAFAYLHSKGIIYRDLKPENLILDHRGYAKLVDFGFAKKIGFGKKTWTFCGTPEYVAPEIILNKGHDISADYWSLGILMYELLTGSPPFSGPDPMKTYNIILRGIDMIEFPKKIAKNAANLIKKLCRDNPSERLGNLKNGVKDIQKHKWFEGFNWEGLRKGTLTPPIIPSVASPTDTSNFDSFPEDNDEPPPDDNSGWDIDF

JAK kinase domains = biological target: T2, JAK kinase domains (Homo sapiens, UniProt O60674); conditions: 10 µM, n=1; kinase JAK2(Kin.Dom.2); read-out: Percent inhibition JAK2(Kin.Dom.2)
T2 construct: purchased DiscoverX (KINOMEscan)
Description: The kinases were expressed as fusions to T7 bacteriophage. This is a sensitive, competitive binding assay where test compounds were used to displace immobilized ATP-site binding probe ligands from kinases of interest. The amount of kinase that remained bound to the immobilized probe ligands on the solid support was quantified. Percentage inhibition data were was plotted on kinome trees using the web-based tool KinMap (http://www.kinhub.org/kinmap) ([60]).

PTK2 = biological target: T3, PTK2 (Homo sapiens, UniProt Q05397); conditions: n=1, read-out: Percent inhibition, PTK2
T3 construct: purchased DiscoverX (KINOMEscan)

PTK6 = biological target: T4, PTK6 (Homo sapiens, UniProt Q13882); conditions: n=1, read-out: Percent inhibition, PTK6
T4 construct: purchased DiscoverX (KINOMEscan)

YANK2 = biological target: T5, YANK2 (Homo sapiens, UniProt Q9NY57); conditions: n=1, read-out: Percent inhibition, YANK2
T5 construct: purchased DiscoverX (KINOMEscan)

PIM1 = biological target: T6, PIM1 (Homo sapiens, UniProt P11309); conditions: n=1, read-out: Percent inhibition, PIM1
T6 construct: purchased DiscoverX (KINOMEscan)

PRKCH = biological target: T7, PRKCH (Homo sapiens, UniProt P24723); conditions: n=1, read-out: Percent inhibition, PRKCH
T7 construct: purchased DiscoverX (KINOMEscan)

TRKC = biological target: T8, TRKC (Homo sapiens, UniProt Q16288); conditions: n=1, read-out: Percent inhibition, TRKC
T8 construct: purchased DiscoverX (KINOMEscan)

TXK = biological target: T9, TXK (Homo sapiens, UniProt P42681); conditions: n=1, read-out: Percent inhibition, TXK
T9 construct: purchased DiscoverX (KINOMEscan)
T9 sequence (P42681 1-527): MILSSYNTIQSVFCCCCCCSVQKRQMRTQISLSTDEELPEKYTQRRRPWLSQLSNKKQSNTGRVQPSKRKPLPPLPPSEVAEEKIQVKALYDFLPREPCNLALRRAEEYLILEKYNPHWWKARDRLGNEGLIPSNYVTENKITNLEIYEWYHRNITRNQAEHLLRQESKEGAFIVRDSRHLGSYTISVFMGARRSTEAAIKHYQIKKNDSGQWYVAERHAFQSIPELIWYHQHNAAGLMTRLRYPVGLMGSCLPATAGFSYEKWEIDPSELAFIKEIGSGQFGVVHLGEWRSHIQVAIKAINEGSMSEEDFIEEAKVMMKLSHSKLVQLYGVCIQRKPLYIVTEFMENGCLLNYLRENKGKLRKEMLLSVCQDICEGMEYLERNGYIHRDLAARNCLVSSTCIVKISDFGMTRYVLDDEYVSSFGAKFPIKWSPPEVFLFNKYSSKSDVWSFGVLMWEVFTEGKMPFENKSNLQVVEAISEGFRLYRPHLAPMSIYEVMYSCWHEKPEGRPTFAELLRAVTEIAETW

ZAP70 = biological target: T10, ZAP70 (Homo sapiens, UniProt P43403); conditions: n=1, read-out: Percent inhibition, ZAP70
T10 construct: purchased DiscoverX (KINOMEscan)
T10 sequence (P43403 1-619): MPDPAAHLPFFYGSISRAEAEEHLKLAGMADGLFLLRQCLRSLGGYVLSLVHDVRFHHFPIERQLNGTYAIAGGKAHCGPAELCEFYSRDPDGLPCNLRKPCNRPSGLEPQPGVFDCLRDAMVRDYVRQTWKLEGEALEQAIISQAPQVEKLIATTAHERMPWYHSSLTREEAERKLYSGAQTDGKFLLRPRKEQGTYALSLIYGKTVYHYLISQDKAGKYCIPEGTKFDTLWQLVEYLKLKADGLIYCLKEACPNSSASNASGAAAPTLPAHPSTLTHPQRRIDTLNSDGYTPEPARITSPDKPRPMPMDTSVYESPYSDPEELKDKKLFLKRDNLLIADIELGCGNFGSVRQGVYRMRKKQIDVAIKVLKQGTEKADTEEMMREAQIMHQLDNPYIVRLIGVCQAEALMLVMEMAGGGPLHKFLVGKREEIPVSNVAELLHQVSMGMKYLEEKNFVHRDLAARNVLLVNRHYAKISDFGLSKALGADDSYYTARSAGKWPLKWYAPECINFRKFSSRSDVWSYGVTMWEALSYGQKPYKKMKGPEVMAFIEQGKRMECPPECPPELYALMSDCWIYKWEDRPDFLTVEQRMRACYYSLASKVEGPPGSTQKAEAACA

Structure (SMILES)	inhibition at 10 µM (PRKG1)	inhibition at 10 µM (JAK kinase domains)	inhibition at 10 µM (PTK2)	inhibition at 10 µM (PTK6)	inhibition at 10 µM (YANK2)	inhibition at 10 µM (PIM1)	inhibition at 10 µM (PRKCH)	inhibition at 10 µM (TRKC)	inhibition at 10 µM (TXK)	inhibition at 10 µM (ZAP70)
Cc1ccc(O)cc1Nc1ccnc(Nc2cccc(C(N)=O)c2)n1 [Compound 3]	0%	80.6%	0%	100%	0%	0%	0%	0%	100%	0%
Cc1ccc(O)cc1N(C)c1ccnc(Nc2cccc(S(N)(=O)=O)c2)n1 [Compound 4]	0%	90.7%	93.4%	100%	94.5%	0%	0%	90%	100%	0%
CN1CCN(c2ccc(Nc3nccc(-c4cnn5ncccc45)n3)cc2C#N)CC1 [Compound 1]	0%	86.8%	87.2%	77%	0%	99.8%	83.4%	82.8%	0%	0%
Clc1ccc(Nc2ncc(-c3ccccc3)s2)cc1 [Compound 10]	0%	0%	0%	0%	0%	0%	0%	0%	0%	0%
Nc1ncc2c(-c3ccncc3)c[nH]c2n1 [Compound 11]	0%	0%	0%	0%	0%	0%	0%	0%	0%	0%
Fc1cccc(COc2ccc(Nc3ncnc4c3CN(CCN3CCOCC3)CC4)cc2Cl)c1 [Compound 6]	0%	0%	0%	0%	0%	0%	0%	0%	0%	0%
COc1ccc(Nc2nccc(-c3cnn4ncccc34)n2)cc1 [Compound 2]	0%	89.7%	99.3%	0%	0%	0%	0%	0%	0%	0%
C[C@@H](Oc1cc(-c2cnc3ccccn23)sc1C(N)=O)c1ccccc1Cl [Compound 8]	0%	70.2%	0%	0%	0%	76.4%	0%	0%	0%	0%
COc1cc(Nc2nccc(-c3sc(N)nc3-c3cccc(NC(=O)c4c(F)cccc4F)c3)n2)cc(OC)c1OC [Compound 7]	0%	0%	97%	100%	93%	0%	87.7%	0%	90.4%	0%
c1ccc(COc2cccc(-c3ccnc4[nH]ccc34)c2)cc1 [Compound 9]	0%	0%	0%	0%	0%	0%	87.9%	0%	0%	0%
